The test system of one test is iNOS. The experiment in a line: Western blot of iNOS in BV2 cells with oxaliplatin-induced inflammatory response. Type of test: cell-based. On the procedure:
(§1) BV2 cell lines (microglia) were cultured in Dulbecco's modified Eagle's medium (DMEM; GIBCO, Grand Island, NY, USA) containing 10% fetal bovine serum (FBS; GIBCO) and 1% penicillin in a 5% CO2 incubator (37° C.). […]
(§2) Thereafter, proteins were isolated from the cells of each treatment group. […] The isolated proteins were quantified for each subject by using the Bradford (Bio-rad, USA) method using bovine serum albumin (BSA, Sigma, USA), and then 20 μg of the proteins were separated by 10% sodium dodecyl sulfate—polyacrylamide gel electrophoresis (SDS-PAGE) and transferred to polyvinylidene difluoride (PVDF) membranes (membrane, Gendepot, UK). […] The protein identification and quantitative analysis were performed using an imaging system (ChemiDoc XRS+ System, Bio-Rad).
(§3) All of the results were analyzed using the SPSS 21.0 package (SPSS Inc., Chicago, USA), and the experimental results were presented as the mean±standard deviation values. Statistical significance was validated using one-way analysis of variance (ANOVA) and then analyzed by Fisher's LSD test, and the significance probability value (p-value) was recognized only when p<0.05 and p<0.01.
Background: In western blotting, separated proteins are transferred to a membrane and probed.

The test system of the next test is p-ERK MAPK. The test is described as follows: Western blot of p-ERK in BV2 cells with oxaliplatin-induced inflammatory response. Type of test: cell-based. How it is done:
as §1, §2, §3

Test [1] has as its system oxaliplatin-induced neuropathic pain animal models. The test is described as follows: Mechanical allodynia (von Frey filament) in oxaliplatin-induced neuropathic pain animal models. Type of test: in vivo, c57/bl6 male mice. The following applies: 10 mg/kg oral, 1 hour after administration, day 3 after oxaliplatin injection, 0.4 g von Frey filament. On the procedure: (§4) Oxaliplatin (Sigma-Aldrich) dissolved in a 5% glucose solution to 2 mg/mL was single-intraperitoneally administered at 6 mg/kg to twelve 5-week-old c57/bl6 male mice. Significant pain was observed from about 3 days after the first injection.
The behavior of withdrawal to a stimulus using a 0.4 g von Frey filament (Touch test 3.61, Stoelting, USA), which causes mechanical allodynia in the oxaliplatin-induced neuropathic pain animal models, was recorded and observed. To measure the withdrawal response of the paws in the animal models, the animals were put in a transparent acrylic box (7 cm×10 cm) placed on a wire mesh with a grid size of 5 mm and given time to acclimate to the environment. After about 1 hour, the acclimation of the mice was checked, and the medial part of the affected paw was stimulated with the quantified von Frey filament through a wire mesh grid. A total of 10 stimulations sufficient to slightly bend the von Frey filament were given at intervals of 20 seconds, and the number of withdrawals was measured. […]

For a further test, the system named is p-NF-κB. The experiment in a line: Western blot of p-NF-κB in BV2 cells with oxaliplatin-induced inflammatory response. Type of test: cell-based. On the procedure:
as §1, §2, §3

Test [2] concerns paclitaxel-induced neuropathic pain animal models. The test is described as follows: Cold allodynia (acetone test) in paclitaxel-induced neuropathic pain animal models. The following applies: 10 mg/kg oral, 1 hour after administration, day 14 after first paclitaxel injection, acetone to rear paws. Type of test: in vivo, c57/bl6 male mice. How it is done: Paclitaxel (Sigma-Aldrich) dissolved in a 1:1 solution of Cremophor EL and ethanol at 6 mg/mL was diluted to a concentration of 0.2 mg/mL, and 2 mg/kg of the diluent was intraperitoneally administered to ten 6-week-old c57/bl6 male mice four times. Injections were conducted on days 0, 2, 4, and 6 at intervals of every other day. A significant pain was observed from about 10 days after the first injection. In the paclitaxel-induced neuropathic pain animal models, the response occurring after about 20 μL of acetone was applied to both rear paws of the animal models to cause cold allodynia was observed and recorded for about 15 seconds. The behaviors of withdrawal, shaking, and licking of the paws were observed and recorded. A total of three repeated trials were performed, and the average number of behaviors recorded was checked. On the 14th day after the first injection of paclitaxel, animal models showing a statistically significant level of pain were divided into a drug group administered 10 mg/kg of syringaresinol (syringaresinol, n=5) and a control group orally administered 0.06% Tween 80 (vehicle, n=5), and then were administered the corresponding drugs to thereby cause cold allodynia after 1 hour.

In test [3] the test system is oxaliplatin-induced neuropathic pain animal models. The test is described as follows: Cold allodynia (acetone test) in oxaliplatin-induced neuropathic pain animal models. Type of test: in vivo, c57/bl6 male mice. The settings on record: 10 mg/kg oral, 1 hour after administration, day 3 after oxaliplatin injection, acetone to rear paws. How it is done:
In the paclitaxel-induced neuropathic pain animal models, the response occurring after about 20 μL of acetone was applied to both rear paws of the animal models to cause cold allodynia was observed and recorded for about 15 seconds. The behaviors of withdrawal, shaking, and licking of the paws were observed and recorded. A total of three repeated trials were performed, and the average number of behaviors recorded was checked.
as §4
Cold allodynia was caused in the oxaliplatin-induced neuropathic pain animal models by way of the method in Example 2.
On the 3rd day after the oxaliplatin injection, animal models showing a statistically significant level of pain were divided into a drug group administered 10 mg/kg syringaresinol (syringaresinol, n=6) and a control group orally administered 0.06% Tween 80 (vehicle, n=6), and then were administered the corresponding drugs to thereby cause cold allodynia and mechanical allodynia after 1 hour.

Test [4] has as its system peripheral nerve injury (PNL)-induced neuropathic pain animal models. The test is described as follows: Mechanical pain (von Frey filament) in peripheral nerve injury (partial sciatic nerve ligation, PNL)-induced neuropathic pain models. Type of test: in vivo, c57/bl6 male mice. The settings on record: 10 mg/kg oral, PNL mice. On the procedure:
The behavior of withdrawal to a stimulus using a 0.4 g von Frey filament (Touch test 3.61, Stoelting, USA), which causes mechanical allodynia in the oxaliplatin-induced neuropathic pain animal models, was recorded and observed. To measure the withdrawal response of the paws in the animal models, the animals were put in a transparent acrylic box (7 cm×10 cm) placed on a wire mesh with a grid size of 5 mm and given time to acclimate to the environment. After about 1 hour, the acclimation of the mice was checked, and the medial part of the affected paw was stimulated with the quantified von Frey filament through a wire mesh grid. A total of 10 stimulations sufficient to slightly bend the von Frey filament were given at intervals of 20 seconds, and the number of withdrawals was measured.
After twelve 5-week-old c57/bl6 male mice were respiratory anesthetized with 2.5% isoflurane, the skin on the posterior side of the right hip joint was shaved and incised, and then the sciatic nerve between the biceps femoris was found and confirmed. Thereafter, the […] was penetrated and ligated by a 7 m/m (⅜) silk thread, and then the cut skin was sutured. […]

Where [5] appears, read: BV2 cells, syringaresinol 10 μg/mL and 100 μg/mL for 1 hour, then 1 μg/mL oxaliplatin for 3 hours.
Where [6] appears, read: BV2 cells stimulated with 1 μg/mL oxaliplatin for 3 hours, versus normal control.

For `COc1cc(C2OCC3C(c4cc(OC)c(O)c(OC)c4)OCC23)cc(OC)c1O` (stereo not shown) [syringaresinol], the “oxaliplatin-induced increase of iNOS protein expression” value in the test with iNOS (setting [5]) is “significantly inhibited”. In addition, the “oxaliplatin-induced increase of p-ERK MAPK protein expression” value in the test with p-ERK MAPK (setting [5]) is “significantly inhibited”. In addition, in test [1], the “mechanical allodynia compared with the control group (vehicle)” value was “mitigated”. The “oxaliplatin-induced increase of p-NF-κB protein expression” value in the test with p-NF-κB (setting [5]) is on record as “significantly inhibited”. Also, the “cold allodynia compared with the control group (vehicle)” value in test [2] and in test [3] was “mitigated” each time. Also, the “mechanical pain compared with the control group (vehicle)” value in test [4] is “significantly mitigated”.

Turning to `O=C1[O][Pt]2([NH][C@@H]3CCCC[C@H]3[NH]2)[O]C1=O` [oxaliplatin, reference compound], the “protein expression of iNOS” value in the test with iNOS (setting [6]) was “significantly increased”. Further, the “protein expression level of p-ERK MAPK” value in the test with p-ERK MAPK (setting [6]) is recorded as “significantly increased”. Besides, the “protein expression level of p-NF-κB” value in the test on p-NF-κB (setting [6]) was “significantly increased”.

Source of the values: patent publication US12521364B2, “Composition for preventing or treating neuropathic pain, containing syringaresinol” (UNIVERSITY-INDUSTRY COOPERATION GROUP OF KYUNG HEE …, priority 2019, dated 2026).
